Experimental data: patent US20080300554A1, “LUBRICANT FOR MEDICAL DEVICES” (APPLIED MEDICAL RESOURCES CORPORATION, priority 2007, published 2008)

Assay: Lubricity durability after incubation in PBS at 70° C.
Format: physicochemical
Settings: PBS at 70° C. for 20 hours
Protocol: Lacking a direct assay for PEI, an indirect measure of cross-linking effectiveness was selected. This method involved measuring the stability of the cross-linked coating when incubated in PBS at 70° C. for 20 hours. […] It was assumed that this durability was only possible if cross-linking had immobilized the PEI into a cross-linked matrix. PVP which cannot participate in this cross-linking was free to diffuse through the matrix to maintain lubricity. This assumption was further validated when the covalently cross-linked coating tested as non toxic.
Primary amines react readily with epoxides to form a secondary amine alcohol. Therefore, a multifunctional epoxide has the capability of cross-linking PEI into an immobile matrix EGDE (Sigma Chemical, ethylene glycol diglycidyl ether, E27203 50% technical grade) is a diepoxide with this capability. EGDE is readily soluble in water and isopropanol and can be applied to a coated sheath by a simple dip into an EGDE solution. Effectiveness of EGDE as a cross-linker of PEI was evaluated at 0.1% and 0.5% in aqueous and isopropanol solutions. Evidence of cross-linking was determined by the durability of lubricity after incubation in phosphate buffered saline (PBS) for 20+ hours at 70° C.
This test consisted of incubation of 6 inch segments of the coated sheaths in phosphate buffered saline (PBS) in 18×150 mm test tubes at 70° C. for 20-24 hours. […]

Lubricity after incubation in PBS (lubricity durability)	Molecule
showed lubricity durability	O=CCCCC=O [Glutaraldehyde]
showed lubricity durability	polyethyleneglycol diglycidyl ether
